Here are results for three compounds from patent publication US4288590A, “7 -[Dα-(4-Hydroxy-1,5-naphthyridine-3-carboxamido)-α-arylacetam ido]-3-(N,N-dimethyl-aminomethylpyridinium) methyl-3-cephem-4-carboxylates” (Bristol-Myers Company, priority 1980, dated 1981).

Converted amounts (≈) assume the structure as drawn. Structures can show the parent of a compound that is named as a salt. Where two headings read alike, the source gives them in different places. Some results are limits rather than exact numbers.

Test in all cases: MIC, serial two-fold agar dilution (Table 1)
Type in all cases: cell-based

The test system of experiment [1] is Ps. aeruginosa A15150. The settings on record: Pseudomonas aeruginosa, Mueller-Hinton agar. On the procedure: (§1) Minimum inhibitory concentrations (MIC) of BB-S 651, BB-S 669 and BB-S 676 were determined by serial two-fold agar dilution method using Steers' apparatus on Mueller-Hinton agar plate against 15 test organisms for primary screening as shown in Table 1.

Experiment [2] deals with S. aureus #193. The settings on record: Staphylococcus aureus. On the procedure:
as §1

Experiment [3] relates to S. aureus BX-1633-2 A9606. The settings on record: Staphylococcus aureus, BX16332A9606. The method, then:
as §1

Experiment [4] has as its system S. aureus 209P A9497. To be noted: Staphylococcus aureus. The method, then:
as §1

For experiment [5], the system named is E. coli Juhl A15119. To be noted: Escherichia coli, JUHLA15119; E. coli Juhl A15119, cephalothin-sensitive; Mueller-Hinton agar. The method, then: as §1
The subject of experiment [6] is E. coli A15148. To be noted: Escherichia coli; E. coli A15148, cephalothin-resistant; Mueller-Hinton agar. The method, then: as §1
In experiment [7] the test system is Ps. aeruginosa A20718. To be noted: Pseudomonas aeruginosa, Mueller-Hinton agar. On the procedure: as §1
For experiment [8], the system named is E. coli A9660. To be noted: Escherichia coli; E. coli A9660, cephalothin-sensitive; Mueller-Hinton agar. On the procedure:
as §1

In experiment [9] the test system is E. cloacae A9656. The settings on record: Enterobacter cloacae, Mueller-Hinton agar. On the procedure:
as §1

The subject of experiment [10] is Ps. aeruginosa A9843. To be noted: Pseudomonas aeruginosa, Mueller-Hinton agar. On the procedure:
as §1

Experiment [11] has as its system Ps. aeruginosa A20229. To be noted: Pseudomonas aeruginosa, Mueller-Hinton agar. On the procedure: as §1
The test system of experiment [12] is S. aureus Smith A9537. To be noted: Staphylococcus aureus, SMITHA9537, Mueller-Hinton agar. On the procedure: as §1
Experiment [13] has as its system S. marcescens A20019. The settings on record: Serratia marcescens, Mueller-Hinton agar. On the procedure:
as §1

Experiment [14] has as its system Ps. aeruginosa A20717. To be noted: Pseudomonas aeruginosa, Mueller-Hinton agar. The method, then: as §1
Experiment [15] concerns E. coli A15164. To be noted: Escherichia coli; E. coli A15164, cephalothin-resistant; Mueller-Hinton agar. On the procedure:
as §1

The mark [16] stands for this setting: S. aureus #193, penicillinase-producing, Mueller-Hinton agar, read-out: MIC.
Where [17] appears, read: S. aureus BX-1633-2 A9606, penicillinase-producing, Mueller-Hinton agar, read-out: MIC.
Setting [18] is: S. aureus 209P A9497, Mueller-Hinton agar, read-out: MIC.

What is called MIC is the lowest concentration found to suppress growth. As for `CN(C)Cc1cc[n+](CC2=C(C(=O)[O-])N3C(=O)C(NC(=O)[C@H](NC(=O)c4cnc5cccnc5c4O)c4ccc(O)cc4)C3SC2)cc1` (stereo partly drawn) [BB-S 669, 7-[D-α-(4-Hydroxy-1,5-naphthyridine-3-carboxamido)-α-(4-hydroxyphenyl)acetamido]-3-(4-N,N-dimethylaminomethylpyridinium)methyl-3-cephem-4-carboxylate Hydrochloride], the MIC amounted to 0.8 µg/mL in [1]; 25 µg/mL in experiment [2] (setting [16]); 25 µg/mL in experiment [3] (setting [17]); 3.1 µg/mL in experiment [4] (209P); 1.6 µg/mL in experiment [5]; 0.8 µg/mL in experiment [6]. For the same compound, the MIC in experiment [7] came to 0.8 µg/mL; in experiment [8] it was 0.8 µg/mL; in [9], 3.1 µg/mL; in experiment [10], 1.6 µg/mL; in [11] it was 1.6 µg/mL; in experiment [12] it was 6.3 µg/mL. Further, the MIC in [13] worked out at 12.5 µg/mL; in [14], 3.1 µg/mL; in [15] it was 6.3 µg/mL.
`CN(C)Cc1ccc[n+](CC2=C(C(=O)[O-])N3C(=O)C(NC(=O)[C@H](NC(=O)c4cnc5cccnc5c4O)c4ccccc4)C3SC2)c1` (stereo partly drawn) [BB-S 676, 7-[D-α-(4-Hydroxy-1,5-naphthyridine-3-carboxamido)α-phenylacetamido]-3-(3-N,N-dimethylaminomethylpyridinium)methyl-3-cephem-4-carboxylateHydrochloride]: the MIC is 1.6 µg/mL in [1]; 6.3 µg/mL in experiment [2] (setting [16]); 6.3 µg/mL in experiment [3] (setting [17]); 1.6 µg/mL in [4] (setting [18]); 12.5 µg/mL in experiment [5]; 6.3 µg/mL in experiment [6]. The MIC in experiment [7] turned out to be 1.6 µg/mL; in experiment [8] it was 3.1 µg/mL; in [9], 50 µg/mL; in experiment [10], 3.1 µg/mL; in experiment [11] it was 3.1 µg/mL; in experiment [12] it was 3.1 µg/mL. Besides, the values for the MIC in [13], in experiment [14] and in experiment [15] were 50 µg/mL, 6.3 µg/mL and 50 µg/mL, respectively.
With `CC1(C)S[C@@H]2[C@H](NC(=O)C(C(=O)O)c3ccccc3)C(=O)N2[C@H]1C(=O)O` (stereo partly drawn) [Carbenicillin, reference compound], the MIC is 25 µg/mL (≈ 66.1 µM) in experiment [1]; 12.5 µg/mL (≈ 33 µM) in experiment [2]; 12.5 µg/mL (≈ 33 µM) in [3]; 0.2 µg/mL (≈ 0.529 µM) in [4] (setting [18]); 3.1 µg/mL (≈ 8.19 µM) in experiment [5]; 3.1 µg/mL (≈ 8.19 µM) in [6]. For the same compound, the MIC in experiment [7] came out at 25 µg/mL (≈ 66.1 µM); in experiment [8], 0.8 µg/mL (≈ 2.11 µM); in experiment [9], 3.1 µg/mL (≈ 8.19 µM); in experiment [10] it was 50 µg/mL (≈ 132 µM); in experiment [11], 50 µg/mL (≈ 132 µM); in [12], 0.2 µg/mL (≈ 0.529 µM). The MIC in experiment [13] is 3.1 µg/mL (≈ 8.19 µM); in experiment [14] it was above 100 µg/mL; in [15] it was 6.3 µg/mL (≈ 16.6 µM).
